Reference: ChEMBL document CHEMBL4507295 (2021)

What was measured:
[1] = biological target: Calcium/calmodulin-dependent protein kinase type 1D (Homo sapiens) (UniProt Q8IU85); conditions: Compound concentration 1000.0 nM
[2] = biological target: Mitogen-activated protein kinase kinase kinase kinase 2 (Homo sapiens) (UniProt Q12851); conditions: Compound concentration 1000.0 nM
[3] = biological target: Serine/threonine-protein kinase D2 (Homo sapiens) (UniProt Q9BZL6); conditions: Compound concentration 1000.0 nM
Chain of Serine/threonine-protein kinase D2 (Homo sapiens) (Q9BZL6 whole entry): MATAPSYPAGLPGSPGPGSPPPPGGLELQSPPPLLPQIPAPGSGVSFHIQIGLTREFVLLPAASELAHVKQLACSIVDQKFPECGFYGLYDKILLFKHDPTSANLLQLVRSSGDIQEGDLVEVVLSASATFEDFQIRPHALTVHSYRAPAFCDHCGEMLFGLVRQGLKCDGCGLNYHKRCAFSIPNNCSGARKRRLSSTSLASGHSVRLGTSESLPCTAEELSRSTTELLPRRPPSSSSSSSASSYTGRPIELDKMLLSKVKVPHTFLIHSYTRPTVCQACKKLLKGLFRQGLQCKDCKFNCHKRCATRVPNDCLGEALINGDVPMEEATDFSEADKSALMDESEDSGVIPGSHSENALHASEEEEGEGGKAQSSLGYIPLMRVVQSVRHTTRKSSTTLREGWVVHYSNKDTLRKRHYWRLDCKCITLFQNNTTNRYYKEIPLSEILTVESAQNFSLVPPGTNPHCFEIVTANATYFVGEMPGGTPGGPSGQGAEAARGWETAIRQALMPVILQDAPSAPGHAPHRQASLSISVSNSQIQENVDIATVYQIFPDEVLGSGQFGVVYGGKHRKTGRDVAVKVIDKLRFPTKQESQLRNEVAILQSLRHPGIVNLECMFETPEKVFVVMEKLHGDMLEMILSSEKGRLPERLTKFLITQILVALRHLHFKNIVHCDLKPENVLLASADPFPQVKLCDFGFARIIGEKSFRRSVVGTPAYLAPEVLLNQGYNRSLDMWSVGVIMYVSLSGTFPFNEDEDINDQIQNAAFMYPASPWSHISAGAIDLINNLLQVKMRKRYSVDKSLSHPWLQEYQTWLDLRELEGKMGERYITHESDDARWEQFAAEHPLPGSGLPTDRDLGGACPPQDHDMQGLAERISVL

[4] = biological target: Proto-oncogene tyrosine-protein kinase ROS (Homo sapiens) (UniProt P08922); conditions: Compound concentration 1000.0 nM
Chain of Proto-oncogene tyrosine-protein kinase ROS (Homo sapiens) (P08922 whole entry): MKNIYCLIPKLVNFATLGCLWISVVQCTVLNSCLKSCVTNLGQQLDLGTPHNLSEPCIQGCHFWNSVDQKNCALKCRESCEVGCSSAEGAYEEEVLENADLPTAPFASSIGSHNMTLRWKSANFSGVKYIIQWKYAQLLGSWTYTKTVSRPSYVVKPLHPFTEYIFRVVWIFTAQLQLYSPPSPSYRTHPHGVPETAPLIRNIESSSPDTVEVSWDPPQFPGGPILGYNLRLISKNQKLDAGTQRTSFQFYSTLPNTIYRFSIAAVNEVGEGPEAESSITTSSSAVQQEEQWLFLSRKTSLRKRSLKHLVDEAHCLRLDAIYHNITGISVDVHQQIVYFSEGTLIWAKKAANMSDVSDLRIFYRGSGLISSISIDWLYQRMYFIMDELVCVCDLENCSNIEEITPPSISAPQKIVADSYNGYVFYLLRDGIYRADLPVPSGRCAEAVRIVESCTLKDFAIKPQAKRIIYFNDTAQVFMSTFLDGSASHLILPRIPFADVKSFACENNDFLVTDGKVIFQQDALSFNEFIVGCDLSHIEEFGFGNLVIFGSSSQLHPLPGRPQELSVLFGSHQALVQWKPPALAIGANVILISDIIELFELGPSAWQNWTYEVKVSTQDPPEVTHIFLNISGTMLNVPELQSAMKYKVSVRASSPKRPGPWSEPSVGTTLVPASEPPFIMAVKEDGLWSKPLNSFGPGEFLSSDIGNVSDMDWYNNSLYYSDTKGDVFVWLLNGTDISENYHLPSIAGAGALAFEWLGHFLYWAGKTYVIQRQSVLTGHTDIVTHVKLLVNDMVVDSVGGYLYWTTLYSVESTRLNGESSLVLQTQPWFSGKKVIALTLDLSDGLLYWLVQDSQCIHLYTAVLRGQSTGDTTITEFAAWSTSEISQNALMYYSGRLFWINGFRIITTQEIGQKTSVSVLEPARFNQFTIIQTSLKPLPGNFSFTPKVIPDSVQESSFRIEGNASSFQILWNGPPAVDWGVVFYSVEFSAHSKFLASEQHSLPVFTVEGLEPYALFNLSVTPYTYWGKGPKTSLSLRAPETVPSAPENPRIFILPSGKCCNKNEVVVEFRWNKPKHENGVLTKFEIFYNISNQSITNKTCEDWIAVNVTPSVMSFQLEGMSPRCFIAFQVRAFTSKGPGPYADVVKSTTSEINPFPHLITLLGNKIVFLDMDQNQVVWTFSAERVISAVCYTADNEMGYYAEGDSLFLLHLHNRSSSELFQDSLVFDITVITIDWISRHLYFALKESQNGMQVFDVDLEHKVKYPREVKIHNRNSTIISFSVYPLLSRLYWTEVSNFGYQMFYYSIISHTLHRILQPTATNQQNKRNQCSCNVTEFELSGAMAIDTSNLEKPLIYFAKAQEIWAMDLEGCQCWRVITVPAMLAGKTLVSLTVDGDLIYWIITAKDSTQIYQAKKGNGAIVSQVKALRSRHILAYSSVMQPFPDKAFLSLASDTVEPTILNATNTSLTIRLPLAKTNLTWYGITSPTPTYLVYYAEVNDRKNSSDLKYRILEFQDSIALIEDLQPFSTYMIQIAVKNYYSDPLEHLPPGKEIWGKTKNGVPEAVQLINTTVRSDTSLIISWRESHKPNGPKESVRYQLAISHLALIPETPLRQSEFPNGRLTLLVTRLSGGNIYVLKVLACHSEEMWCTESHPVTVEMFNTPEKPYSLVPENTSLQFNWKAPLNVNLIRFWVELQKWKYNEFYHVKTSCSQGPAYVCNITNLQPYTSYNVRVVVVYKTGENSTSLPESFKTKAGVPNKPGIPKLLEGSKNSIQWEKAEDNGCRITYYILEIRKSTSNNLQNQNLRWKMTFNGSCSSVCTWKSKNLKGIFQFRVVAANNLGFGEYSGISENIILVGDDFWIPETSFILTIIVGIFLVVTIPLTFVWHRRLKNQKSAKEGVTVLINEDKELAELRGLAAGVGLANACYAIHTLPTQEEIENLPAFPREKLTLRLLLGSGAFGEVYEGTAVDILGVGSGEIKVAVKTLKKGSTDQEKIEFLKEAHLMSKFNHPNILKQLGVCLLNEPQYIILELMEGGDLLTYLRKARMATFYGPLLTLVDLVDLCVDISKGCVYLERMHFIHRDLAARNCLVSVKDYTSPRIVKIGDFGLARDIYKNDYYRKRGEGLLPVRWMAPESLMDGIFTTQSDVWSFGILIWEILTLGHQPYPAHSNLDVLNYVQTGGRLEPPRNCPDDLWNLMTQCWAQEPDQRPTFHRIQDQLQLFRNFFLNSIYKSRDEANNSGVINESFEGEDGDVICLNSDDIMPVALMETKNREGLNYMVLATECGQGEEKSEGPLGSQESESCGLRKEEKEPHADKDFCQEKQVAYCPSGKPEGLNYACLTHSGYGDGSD

[5] = biological target: Activated CDC42 kinase 1 (Homo sapiens) (UniProt Q07912); conditions: Compound concentration 1000.0 nM
Chain of Activated CDC42 kinase 1 (Homo sapiens) (Q07912 whole entry, looked up): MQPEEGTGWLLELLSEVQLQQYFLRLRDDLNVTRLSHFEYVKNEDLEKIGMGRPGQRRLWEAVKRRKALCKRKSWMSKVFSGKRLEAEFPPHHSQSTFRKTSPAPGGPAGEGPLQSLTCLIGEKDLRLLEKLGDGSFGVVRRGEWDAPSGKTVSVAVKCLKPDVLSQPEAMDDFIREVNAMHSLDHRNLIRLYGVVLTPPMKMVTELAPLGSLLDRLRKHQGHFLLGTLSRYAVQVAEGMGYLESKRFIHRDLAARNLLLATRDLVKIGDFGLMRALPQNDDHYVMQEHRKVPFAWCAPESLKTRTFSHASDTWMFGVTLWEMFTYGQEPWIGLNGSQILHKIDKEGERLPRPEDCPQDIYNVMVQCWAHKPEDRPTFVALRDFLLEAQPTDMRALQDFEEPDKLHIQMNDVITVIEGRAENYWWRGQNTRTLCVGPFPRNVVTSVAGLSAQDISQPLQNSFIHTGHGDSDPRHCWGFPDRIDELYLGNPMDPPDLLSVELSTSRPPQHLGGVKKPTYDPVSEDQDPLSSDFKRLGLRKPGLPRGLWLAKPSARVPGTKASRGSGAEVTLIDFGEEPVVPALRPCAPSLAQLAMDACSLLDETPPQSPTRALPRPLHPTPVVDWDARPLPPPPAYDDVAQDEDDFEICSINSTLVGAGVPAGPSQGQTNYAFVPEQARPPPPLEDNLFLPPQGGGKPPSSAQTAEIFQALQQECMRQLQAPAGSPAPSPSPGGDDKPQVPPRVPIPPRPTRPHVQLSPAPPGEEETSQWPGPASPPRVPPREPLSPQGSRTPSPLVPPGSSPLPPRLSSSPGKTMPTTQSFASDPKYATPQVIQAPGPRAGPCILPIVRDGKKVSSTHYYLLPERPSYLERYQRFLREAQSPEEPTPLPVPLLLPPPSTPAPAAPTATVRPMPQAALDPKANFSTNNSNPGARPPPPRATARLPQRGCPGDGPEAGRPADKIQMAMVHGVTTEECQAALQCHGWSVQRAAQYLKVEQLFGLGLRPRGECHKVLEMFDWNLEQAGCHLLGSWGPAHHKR

[6] = biological target: Testis-specific serine/threonine-protein kinase 1 (Homo sapiens) (UniProt Q9BXA7); conditions: Compound concentration 1000.0 nM
[7] = biological target: Delta-type opioid receptor (Homo sapiens) (UniProt P41143); conditions: Compound concentration 10.0 uM
[8] = biological target: Epidermal growth factor receptor (Homo sapiens) (UniProt P00533); test: Inhibition of Epidermal Growth Factor (EGF) at 10 µM in the Eurofins-Panlabs radioligand binding assay (Eurofins_assay_225510); conditions: Compound concentration 10.0 uM
[9] = biological target: Glutamate receptor ionotropic, kainate (Rattus norvegicus) (UniProt P22756+Q01812+P42260+P42264+Q63273); test: Inhibition of Glutamate, Kainate at 10 µM in the Eurofins-Panlabs radioligand binding assay (Eurofins_assay_232700); conditions: Compound concentration 10.0 uM
monoamine oxidase MAO-A = monoamine oxidase MAO-A (Homo sapiens, UniProt P21397); test: Inhibition of Monoamine Oxidase MAO-A at compound concentration of 10.0 uM in the Eurofins-Panlabs enzyme assay (Eurofins_assay_140010); design: substrate with concentration 50 uM Kynuramine, incubation time 60 min, incubation temperature 37 C; conditions: recombinant human MAO-A expressed in insect Hi5 cells, probe kynuramine (50 uM), compound concentration 10 uM
[10] = biological target: Receptor-type tyrosine-protein phosphatase C (Homo sapiens) (UniProt P08575); test: Inhibition of Protein Tyrosine Phosphatase, PTPRC (CD45) at 10 µM in the Eurofins-Panlabs enzyme assay (Eurofins_assay_190010); conditions: Compound concentration 10.0 uM
[11] = Inhibition of Atrial Natriuretic Factor (ANF) at 10 µM in the Eurofins-Panlabs radioligand binding assay (Eurofins_assay_211000); conditions: Cavia porcellus
[12] = biological target: Melanocortin receptor 4 (Homo sapiens) (UniProt P32245); test: Inhibition of Melanocortin MC4 at 10 µM in the Eurofins-Panlabs radioligand binding assay (Eurofins_assay_251350); design: ligand concentration 0.02 nM; conditions: Compound concentration 10.0 uM
[13] = biological target: 5-hydroxytryptamine receptor 1B (Homo sapiens) (UniProt P28222); test: Inhibition of Serotonin (5-Hydroxytryptamine) 5-HT1B at 10 µM in the Eurofins-Panlabs radioligand binding assay (Eurofins_assay_271200); conditions: Compound concentration 10.0 uM
[14] = biological target: Polyunsaturated fatty acid 5-lipoxygenase (Homo sapiens) (UniProt P09917); test: Lipoxygenase 5-LO Eurofins-Panlabs enzyme assay; conditions: Compound concentration 10.0 uM
[15] = biological target: Macrophage metalloelastase (Homo sapiens) (UniProt P39900); test: Peptidase, Matrix Metalloproteinase-12 (MMP-12) Eurofins-Panlabs enzyme assay; conditions: Compound concentration 10.0 uM
[16] = biological target: Neprilysin (Homo sapiens) (UniProt P08473); test: Peptidase, Metalloproteinase, Neutral Endopeptidase Eurofins-Panlabs enzyme assay; conditions: Compound concentration 10.0 uM
[17] = biological target: Phosphodiesterase PDE1 (Bos taurus) (UniProt Q01061+P14100+A0A3Q1MCV4); test: Phosphodiesterase PDE1 Eurofins-Panlabs enzyme assay; assay type: protein assay; design: substrate with concentration [3H] cAMP + cAMP, incubation time 20 min, incubation temperature 25 °C; conditions: Compound concentration 100.0 uM
[18] = biological target: Protein kinase C alpha type (Homo sapiens, UniProt P17252); test: Inhibition of Protein Serine/Threonine Kinase, PRKCA (PKCα) at 10 µM in the Eurofins-Panlabs enzyme assay (Eurofins_assay_180010); design: substrate with concentration Histone, incubation time 10 min, incubation temperature 25 °C
Rattus norvegicus [19] = organism: Rattus norvegicus; test: Adrenergic α1, Non-selective Eurofins-Panlabs radioligand binding assay; assay type: protein assay; conditions: Compound concentration 10.0 uM
[20] = biological target: Neuromedin-K receptor (Homo sapiens) (UniProt P29371); test: Tachykinin NK3 Eurofins-Panlabs radioligand binding assay; design: ligand concentration 0.8 nM; conditions: Compound concentration 10.0 uM
[21] = biological target: GABA-A receptor; alpha-5/beta-3/gamma-2 (Homo sapiens) (UniProt P18507+P28472+P31644); test: GABA-alpha5beta3gamma2 (Muscimol binding) Eurofins-Panlabs radioligand binding assay; assay type: protein-complex assay; design: ligand concentration 8 nM; conditions: Compound concentration 10.0 uM
[22] = biological target: D(3) dopamine receptor (Homo sapiens) (UniProt P35462); conditions: Compound concentration 10.0 uM
[23] = biological target: D(1B) dopamine receptor (Homo sapiens) (UniProt P21918); conditions: Compound concentration 10.0 uM
[24] = biological target: Alpha-1D adrenergic receptor (Homo sapiens) (UniProt P25100); conditions: Compound concentration 10.0 uM
[25] = biological target: Beta-2 adrenergic receptor (Homo sapiens) (UniProt P07550); conditions: Compound concentration 10.0 uM
[26] = biological target: D(2) dopamine receptor (Homo sapiens) (UniProt P14416); conditions: Compound concentration 10.0 uM
[27] = biological target: Glutamate NMDA receptor (Rattus norvegicus) (UniProt P35439+Q00959+Q00960+Q00961+Q62645+Q8VHN2+Q9R1M7); conditions: Compound concentration 10.0 uM
[28] = biological target: Histamine H2 receptor (Homo sapiens) (UniProt P25021); conditions: Compound concentration 10.0 uM
[29] = biological target: Muscarinic acetylcholine receptor M3 (Homo sapiens) (UniProt P20309); conditions: Compound concentration 10.0 uM
[30] = biological target: T1, 5-hydroxytryptamine receptor 1A (Homo sapiens) (UniProt P08908); conditions: Compound concentration 10.0 uM
T1 sequence (whole entry): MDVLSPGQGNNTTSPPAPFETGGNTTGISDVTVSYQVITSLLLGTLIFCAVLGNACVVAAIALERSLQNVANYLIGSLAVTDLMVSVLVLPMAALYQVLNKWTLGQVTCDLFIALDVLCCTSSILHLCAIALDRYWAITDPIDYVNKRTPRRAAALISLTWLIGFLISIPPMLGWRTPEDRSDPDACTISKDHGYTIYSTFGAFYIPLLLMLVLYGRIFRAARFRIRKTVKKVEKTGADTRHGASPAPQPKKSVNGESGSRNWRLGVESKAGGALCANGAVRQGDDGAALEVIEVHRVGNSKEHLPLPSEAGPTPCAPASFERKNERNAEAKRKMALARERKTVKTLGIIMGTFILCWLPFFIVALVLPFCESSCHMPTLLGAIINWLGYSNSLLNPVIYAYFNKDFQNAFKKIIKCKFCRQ

[31] = biological target: Sodium-dependent dopamine transporter (Homo sapiens) (UniProt Q01959); conditions: Compound concentration 10.0 uM
Rattus norvegicus [32] = organism: Rattus norvegicus; conditions: Compound concentration 10.0 uM
[33] = biological target: Synaptic vesicular amine transporter (Homo sapiens) (UniProt Q05940); conditions: Oryctolagus cuniculus; Compound concentration 10.0 uM

Chain of Mitogen-activated protein kinase kinase kinase kinase 2 (Homo sapiens) (Q12851 whole entry): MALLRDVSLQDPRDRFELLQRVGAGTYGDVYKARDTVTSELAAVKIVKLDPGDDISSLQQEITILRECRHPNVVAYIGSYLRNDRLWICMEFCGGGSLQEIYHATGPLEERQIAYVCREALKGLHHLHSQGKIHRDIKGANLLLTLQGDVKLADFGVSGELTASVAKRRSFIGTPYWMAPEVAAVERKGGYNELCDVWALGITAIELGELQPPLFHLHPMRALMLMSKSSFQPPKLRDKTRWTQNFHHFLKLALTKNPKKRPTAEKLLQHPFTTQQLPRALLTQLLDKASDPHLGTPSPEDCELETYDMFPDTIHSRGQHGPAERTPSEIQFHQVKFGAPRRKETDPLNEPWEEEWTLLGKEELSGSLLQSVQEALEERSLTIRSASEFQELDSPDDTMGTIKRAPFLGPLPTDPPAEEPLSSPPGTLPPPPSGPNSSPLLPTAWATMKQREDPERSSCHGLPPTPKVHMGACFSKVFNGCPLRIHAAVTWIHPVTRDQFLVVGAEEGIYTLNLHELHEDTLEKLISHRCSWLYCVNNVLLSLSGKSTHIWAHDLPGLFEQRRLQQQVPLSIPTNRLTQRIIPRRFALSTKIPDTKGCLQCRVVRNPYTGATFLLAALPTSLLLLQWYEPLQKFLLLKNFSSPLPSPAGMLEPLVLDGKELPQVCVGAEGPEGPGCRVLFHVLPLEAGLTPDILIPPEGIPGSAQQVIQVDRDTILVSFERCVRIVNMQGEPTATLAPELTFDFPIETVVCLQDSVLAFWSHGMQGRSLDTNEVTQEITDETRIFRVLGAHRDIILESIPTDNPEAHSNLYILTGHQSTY

Compound: N#CC1(c2ccccn2)CCN(Cc2cc(C(=O)N3CCCC3)c(=O)n3ccccc23)CC1
- residual activity [1]: 100%
- residual activity [2]: 96%
- residual activity [3]: 85%
- residual activity [4]: 97%
- residual activity [5]: 85%
- residual activity [6]: 98%
- inhibition [7]: -0.84%

Compound: N#CC1(c2ccccn2)CCN(Cc2cc(C(=O)O)c(=O)n3ccccc23)CC1 [MSD-M1PAM]
- inhibition [8]: -7%
- inhibition [9]: 7%
- inhibition at 60 min, 10 µM (monoamine oxidase MAO-A): 12% (not active)
- inhibition [10]: 13%
- inhibition at 10 µM [11]: 1% (not active)
- inhibition [12]: -1%
- inhibition [13]: -2%
- inhibition [14]: -7%
- inhibition [15]: 12%
- inhibition [16]: 3%
- inhibition [17]: 28%
- IC50 [18]: 91.5 µM
- inhibition ([18]; Compound concentration 0.1 uM): -9%
- inhibition ([18]; Compound concentration 1.0 uM): -3%
- inhibition ([18]; Compound concentration 10.0 uM): 11%
- inhibition ([18]; Compound concentration 100.0 uM): 52%
- inhibition (Rattus norvegicus [19]): -4%
- inhibition [20]: 7%
- inhibition [21]: 11%
- residual activity [1]: 100%
- residual activity [2]: 81%
- residual activity [3]: 99%
- residual activity [4]: 90%
- residual activity [5]: 99%
- residual activity [6]: 74%
- inhibition [22]: -7.39%
- inhibition [23]: -2.87%
- inhibition [24]: -5.73%
- inhibition [25]: -4%
- inhibition [26]: -9%
- inhibition [27]: 4%
- inhibition [28]: -3%
- inhibition [29]: 3%
- inhibition [30]: 2%
- inhibition [31]: 0%
- inhibition (Rattus norvegicus [32]): -4%
- inhibition [33]: 9%
